According to patent US20250163064A1, “QUINAZOLINE COMPOUNDS AND USES THEREOF AS INHIBITORS OF MUTANT KRAS PROTEINS” (AMGEN INC., priority 2022, published 2025):
Like-named read-outs stand apart in the source and are kept apart here.

Columns and labels:
[1] = biological target: GDP-bound KRAS protein (aa 1-169), G12D and C118A; SOS-mediated nucleotide exchange (Homo sapiens (Human), UniProt P01116, C118A/G12D); assay: KRAS G12D Coupled Nucleotide Exchange Assay; type: biochemical; details: 2 h compound pre-incubation, GTP, cRAF AlphaScreen
Sequence of GDP-bound KRAS protein (aa 1-169), G12D and C118A; SOS-mediated nucleotide exchange (P01116 other isoform, or with tags, fused parts or gaps G12D/C118A): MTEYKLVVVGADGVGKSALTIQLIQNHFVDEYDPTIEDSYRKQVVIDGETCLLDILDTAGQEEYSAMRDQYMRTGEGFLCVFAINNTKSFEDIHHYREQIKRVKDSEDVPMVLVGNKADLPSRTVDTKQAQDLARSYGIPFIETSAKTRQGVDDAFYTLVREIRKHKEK
Procedure: Purified GDP-bound KRAS protein (aa 1-169), containing both G12D and C118A amino acid substitutions and an N-terminal His-tag, was pre-incubated in assay buffer (25 mM HEPES pH 7.4, 10 mM MgCl2, and 0.01% Triton X-100) with a compound dose-response titration for 2 h. Following compound pre-incubation, purified SOS protein (aa 564-1049) and GTP (Roche 10106399001) were added to the assay wells and incubated for an additional 30 min. […] The assay plates were then read on a PerkinElmer En Vision Multilabel Reader, using AlphaScreen® technology, and data were analyzed using a 4-parameter logistic model to calculate IC50 values.

[2] = tested on: Phosphorylation of ERK1/2 in AsPC-1 cells; assay: Phospho-ERK1/2 MSD Assay; type: cell-based
Procedure: AsPC-1 (ATCC® CRL-1682TM) cells were cultured in RPMI 1640 Medium (ThermoFisher Scientific 11875093) containing 10% fetal bovine serum (ThermoFisher Scientific 16000044) and 1× penicillin-streptomycin-glutamine (ThermoFisher Scientific 10378016). Sixteen hours prior to compound treatment, AsPC-1 cells were seeded in 96-well cell culture plates at a density of 25,000 cells/well and incubated at 37° C., 5% CO2. A compound dose-response titration was diluted in growth media, added to appropriate wells of a cell culture plate, and then incubated at 37° C., 5% CO2 for 2 hours. Following compound treatment, cells were washed with ice-cold Dulbecco's phosphate-buffered saline, no Ca^2+ or Mg^2+ (ThermoFisher Scientific 14190144), and then lysed in RIPA buffer (50 mM Tris-HCl pH 7.5, 1% Igepal, 0.5% sodium deoxycholate, 150 mM NaCl, and 0.5% sodium dodecyl sulfate) containing protease inhibitors (Roche 4693132001) and phosphatase inhibitors (Roche 4906837001). Phosphorylation of ERK1/2 in compound-treated lysates was assayed using Phospho-ERK1/2 Whole Cell Lysate kits (Meso Scale Discovery K151DWD) according to the manufacturer's protocol. Assay plates were read on a Meso Scale Discovery Sector Imager 6000, and data were analyzed using a 4-parameter logistic model to calculate IC50 values.

[3] = biological target: His-tagged KRAS G12D protein (Homo sapiens (Human), UniProt P01116, G12D); assay: KRAS G12D TR-FRET Assay; type: binding; details: biotinylated KRPep-2d, 10 μM GDP
Sequence of His-tagged KRAS G12D protein (P01116-2 other isoform, or with tags, fused parts or gaps G12D): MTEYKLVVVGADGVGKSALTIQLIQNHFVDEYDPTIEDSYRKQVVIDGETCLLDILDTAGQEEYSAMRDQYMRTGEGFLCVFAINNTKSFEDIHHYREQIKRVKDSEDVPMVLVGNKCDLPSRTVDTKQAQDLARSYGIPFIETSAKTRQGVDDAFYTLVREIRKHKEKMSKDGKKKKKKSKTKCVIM
Procedure: Compounds of interest were prepared in a dose-response titration in DMSO, and 80 nL were added via Labcyte Echo to each well of a 384-well plate (Perkin Elmer 6008280). The His-tagged KRAS G12D protein (Amgen) was diluted to 20 nM in Assay Buffer (20 mM HEPES, pH 7.4, 10 mM MgCl2, 50 mM NaCl, 0.1% BSA, 0.01% Tween-20, 10 μM GDP) and 2 μL was added to the appropriate wells of the 384-well plate. The plate was incubated for 30 minutes at rt. Biotinylated KRPep-2d substrate (Amgen) was diluted to […] in Assay Buffer and 2 AL was added to all wells and incubated for 1 hour at room temperature. Detection Reagent (0.4 nM LANCE Eu-W1024 Anti-6×His (Perkin Elmer AD0401), 5 nM streptavidin-d2 (Cisbio 610SADLA)) was prepared in Assay Buffer, then 4 AL was added to the plate and incubated for 1 h at rt. Plates were read using PerkinElmer En Vision (ex: 320 nm, em1: 665 nm, em2: 615 nm) and em1/em2 data was used to generate curve fits using a 4-parameter logistic model to calculate IC50 values.

[4] = read-out: 2 h p-ERK (AsPC-1 cells), IC50, AsPC-1 cells, 2 h compound treatment
[5] = Homo sapiens, ASPC1, 2 h, read-out: 2 h p-ERK (AsPC-1 cells), IC50 (μM), AsPC-1 cells, 2 h compound treatment

Row | SMILES | IC50 [1] [nM] | IC50 [2, 4] [µM] | IC50 [3] [nM] | IC50 [2, 5] [µM]
1 | CC1(O)COCCN(c2nc(OC[C@@]34CCCN3C[C@H](F)C4)nc3c(F)c(-c4ccc(F)c5sc(N)c(C#N)c45)c(Cl)cc23)C1 (single isomer, unassigned) [Example 22] | 2 | 0.013 | 2 | 
2 | CC1(O)COCCN(c2nc(OC[C@@]34CCCN3C[C@H](F)C4)nc3c(F)c(-c4ccc(F)c5sc(N)c(C#N)c45)c(Cl)cc23)C1 (single isomer, unassigned) [Example 24] | 2 | 0.185 | 3 | 
3 | CC1(O)CCCCN(c2nc(OC[C@@]34CCCN3C[C@H](F)C4)nc3c(F)c(-c4ccc(F)c5sc(N)c(C#N)c45)c(Cl)cc23)C1 (single isomer, unassigned) [Example 28] | 5 |  | 3 | 0.097
4 | CCC1(O)COCCN(c2nc(OC[C@@]34CCCN3C[C@H](F)C4)nc3c(F)c(-c4ccc(F)c5sc(N)c(C#N)c45)c(Cl)cc23)C1 (single isomer, unassigned) [Example 44] | 3 | 0.032 | 2 | 
5 | CCC1(O)COCCN(c2nc(OC[C@@]34CCCN3C[C@H](F)C4)nc3c(F)c(-c4ccc(F)c5sc(N)c(C#N)c45)c(Cl)cc23)C1 (single isomer, unassigned) [Example 45] | 5 | 0.185 | 6 | 
6 | N#Cc1c(N)sc2c(F)ccc(-c3c(Cl)cc4c(N5CCOCC(O)(C(F)F)C5)nc(OC[C@@]56CCCN5C[C@H](F)C6)nc4c3F)c12 (single isomer, unassigned) [Example 46] | 3 |  | 6 | 0.148
7 | N#Cc1c(N)sc2c(F)ccc(-c3c(Cl)cc4c(N5CCOCC(F)C5)nc(OC[C@@]56CCCN5C[C@H](F)C6)nc4c3F)c12 (single isomer, unassigned) [Example 58] | 1 |  | 3 | 0.078
8 | N#Cc1c(N)sc2c(F)ccc(-c3c(Cl)cc4c(N5CCOCC(F)C5)nc(OC[C@@]56CCCN5C[C@H](F)C6)nc4c3F)c12 (single isomer, unassigned) [Example 59] | 2 | 0.062 | 5 | 
9 | CC1(O)COCCN(c2nc(OCC34CCCN3CC(F)(F)C4)nc3c(F)c(-c4ccc(F)c5sc(N)c(C#N)c45)c(Cl)cc23)C1 (single isomer, unassigned) [Example 60, 2-Amino-4-(6-chloro-2-((2,2-difluorotetrahydro-1H-pyrrolizin-7a(5H)-yl)methoxy)-8-fluoro-4-(6-hydroxy-6-methyl-1,4-oxazepan-4-yl)quinazolin-7-yl)-7-fluorobenzo[b] thiophene-3-carbonitrile] | 7 |  | 8 | 0.292
10 | N#Cc1c(N)sc2c(F)ccc(-c3c(Cl)cc4c(N5CCCC[C@H](O)C5)nc(OC[C@@]56CCCN5C[C@H](F)C6)nc4c3F)c12 [Example 5, 2-Amino-4-(6-chloro-8-fluoro-2-(((2R,7a.S)-2-fluorotetrahydro-1H-pyrrolizin-7a(5H)-yl)methoxy)-4-((S)-3-hydroxyazepan-1-yl)quinazolin-7-yl)-7-fluorobenzo[b] thiophene-3-carbonitrile] | 4 |  | 3 | 0.097
11 | CC1(C(N)=O)CCCN(c2nc(OC[C@@]34CCCN3C[C@H](F)C4)nc3c(F)c(-c4ccc(F)c5sc(N)c(C#N)c45)c(Cl)cc23)C1 (stereo partly drawn) [Example 11, 1-(7-(2-Amino-3-cyano-7-fluorobenzo[b]thiophen-4-yl)-6-chloro-8-fluoro-2-(((2R,7aS)-2-fluorotetrahydro-1H-pyrrolizin1 7a(5H)-yl)methoxy)quinazolin-4-yl)-3-methylpiperidine-3-carboxamide] | 7 |  | 7 | 0.677
12 | N#Cc1c(N)sc2c(F)ccc(-c3c(Cl)cc4c(N5CCC[C@@H](S(N)(=O)=O)C5)nc(OC[C@@]56CCCN5C[C@H](F)C6)nc4c3F)c12 [Example 12, (3R)-1-(7-(2-Amino-3-cyano-7-fluorobenzo[b]thiophen-4-yl)-6-chloro-8-fluoro-2-(((2R,7aS)-2-fluorotetrahydro-1H-pyrrolizin-7a(5H)-yl)methoxy)quinazolin-4-yl)piperidine-3-sulfonamide] | 6 |  | 6 | 1.81
13 | N#Cc1c(N)sc2c(F)ccc(-c3c(Cl)cc4c(N5CCCC6(CC(=O)N6)C5)nc(OC[C@@]56CCCN5C[C@H](F)C6)nc4c3F)c12 (stereo partly drawn) [Example 13, 2-Amino-4-(6-chloro-8-fluoro-2-(((2R,7aS)-2-fluorotetrahydro-1H-pyrrolizin1 7a(5H)-yl)methoxy)-4-(2-oxo-1,6-diazaspiro[3.5]nonan-6-yl)quinazolin-7-yl)-7-fluorobenzo[b] thiophene-3-carbonitrile] | 5 |  | 5 | 2.21
14 | CS(=O)(=O)N1CC2(CCCN(c3nc(OC[C@@]45CCCN4C[C@H](F)C5)nc4c(F)c(-c5ccc(F)c6sc(N)c(C#N)c56)c(Cl)cc34)C2)C1 [Example 14] | 4 |  | 4 | 0.729
15 | N#Cc1c(N)sc2c(F)ccc(-c3c(Cl)cc4c(N5CCCCC(S(N)(=O)=O)C5)nc(OC[C@@]56CCCN5C[C@H](F)C6)nc4c3F)c12 (stereo partly drawn) [Example 15, 1-(7-(2-Amino-3-cyano-7-fluorobenzo[b]thiophen-4-yl)-6-chloro-8-fluoro-2-(((2R,7aS)-2-fluorotetrahydro-1H-pyrrolizin-7a(5H)-yl)methoxy)quinazolin-4-yl)azepane-3-sulfonamide] | 4 |  | 3 | 0.296
16 | N#Cc1c(N)sc2c(F)ccc(-c3c(Cl)cc4c(N5CCCC(=O)CC5)nc(OC[C@@]56CCCN5C[C@H](F)C6)nc4c3F)c12 [Example 16, 2-Amino-4-(6-chloro-8-fluoro-2-(((2R,7a.S)-2-fluorotetrahydro-1H-pyrrolizin-7a(5H)-yl)methoxy)-4-(4-oxoazepan-1-yl)quinazolin-7-yl)-7-fluorobenzo[b] thiophene-3-carbonitrile] | 3 |  | 2 | 0.076
17 | N#Cc1c(N)sc2c(F)ccc(-c3c(Cl)cc4c(N5CCCC6(CCO6)C5)nc(OC[C@@]56CCCN5C[C@H](F)C6)nc4c3F)c12 (stereo partly drawn) [Example 20, 2-Amino-4-(6-chloro-8-fluoro-2-(((2R,7aS)-2-fluorotetrahydro-1H-pyrrolizin-7a(5H)-yl)methoxy)-4-(1-oxa-6-azaspiro[3.5]nonan-6-yl)quinazolin-7-yl)-7-fluorobenzo[b] thiophene-3-carbonitrile] | 26 |  | 22 | 1.02
18 | N#Cc1c(N)sc2c(F)ccc(-c3c(Cl)cc4c(N5CCC6CCC(C5)O6)nc(OC[C@@]56CCCN5C[C@H](F)C6)nc4c3F)c12 (stereo partly drawn) [Example 21] | 8 |  | 10 | 0.532
19 | N#Cc1c(N)sc2c(F)ccc(-c3c(Cl)cc4c(N5CCCS(=O)(=O)CC5)nc(OC[C@@]56CCCN5C[C@H](F)C6)nc4c3F)c12 [Example 25, 2-Amino-4-(6-chloro-4-(1,1-dioxido-1,4-thiazepan-4-yl)-8-fluoro-2-(((2R,7aS)-2-fluorotetrahydro-1H-pyrrolizin-7a(5H)-yl)methoxy)quinazolin-7-yl)-7-fluorobenzo[b] thiophene-3-carbonitrile] | 3 |  | 3 | 0.492
